In US9518078B2, “Disaccharide synthetic lipid compounds and uses thereof” (AVANTI POLAR LIPIDS, INC., priority 2012, dated 2016):
“And” between values parts separate entries of the source, which are not always exact repeats. Equal values may be shown once.

Legend:
human TLR-4 receptor = biological target: T1, human TLR-4 receptor (Homo sapiens, UniProt O00206+Q9Y6Y9); experiment: NFκB-inducible secreted alkaline phosphatase reporter in HEK-293 cells over-expressing human TLR-4; assay type: cell-based; conditions: hTLR-4 HEK-293, 18 h
T1 construct: expressed in transfected cells; host or cells: HEK-293
Procedure: (§1) HEK-293 cell lines engineered to functionally over-express human or murine TLR-4 receptor were utilized in the experiments below. These cells also contain a reporter gene (a secreted alkaline phosphatase) under the control of a NFκB inducible promoter. TLR-4 activation results are given as optical density (OD) values after 18 hours stimulation of the designated HEK-293 cell lines.
(§2) Samples and controls are tested in duplicate on recombinant HEK-293 cell lines. The negative controls for the assay were the parental HEK-293 cell lines transfected only with the reporter gene. Negative control cells were stimulated with TNF-α, an inducer of NFκB activity. The positive controls for the assay were HEK-293 cells transfected with human TLR-4 (hTLR-4) or mouse TLR-4 (mTLR-4) along with the reporter construct and activated with LPS 0111 (obtained from E. coli 0111:B4 strain) from 100 ng/ml to 0.01 ng/ml or with LPS K12 (obtained from E. coli K12 strain) from 100 ng/ml to 0.01 ng/ml.
(§3) Another synthetic disaccharide lipid compound used in this assay in an independent experiment, was the compound of the structure XV (referred to herein as MPLA-C). […] Test compounds were used at the following concentrations: 5.7 μM/570 nM/171 nM/57 nM/17 nM/5.7 nM/well to stimulate in duplicate hTLR4 and mTLR4 expressing cell lines.

[1] = system: murine parental cell line (mTLR); experiment: Negative control: murine parental HEK-293 cell line transfected only with the reporter gene; assay type: cell-based, mouse; conditions: parental HEK-293, 18 h
Procedure: as §1, §2
Another synthetic disaccharide lipid compound used in this assay in an independent experiment was the compound of the structure X (referred to herein as MPLA-D). […] Test compounds were used at the following concentrations: 5.71 μM/570 nM/171 nM/57 nM/17 nM/5.7 nM/well to stimulate in duplicate mTLR4 expressing cell lines.
as §3

T1 sequence (O00206 24-839): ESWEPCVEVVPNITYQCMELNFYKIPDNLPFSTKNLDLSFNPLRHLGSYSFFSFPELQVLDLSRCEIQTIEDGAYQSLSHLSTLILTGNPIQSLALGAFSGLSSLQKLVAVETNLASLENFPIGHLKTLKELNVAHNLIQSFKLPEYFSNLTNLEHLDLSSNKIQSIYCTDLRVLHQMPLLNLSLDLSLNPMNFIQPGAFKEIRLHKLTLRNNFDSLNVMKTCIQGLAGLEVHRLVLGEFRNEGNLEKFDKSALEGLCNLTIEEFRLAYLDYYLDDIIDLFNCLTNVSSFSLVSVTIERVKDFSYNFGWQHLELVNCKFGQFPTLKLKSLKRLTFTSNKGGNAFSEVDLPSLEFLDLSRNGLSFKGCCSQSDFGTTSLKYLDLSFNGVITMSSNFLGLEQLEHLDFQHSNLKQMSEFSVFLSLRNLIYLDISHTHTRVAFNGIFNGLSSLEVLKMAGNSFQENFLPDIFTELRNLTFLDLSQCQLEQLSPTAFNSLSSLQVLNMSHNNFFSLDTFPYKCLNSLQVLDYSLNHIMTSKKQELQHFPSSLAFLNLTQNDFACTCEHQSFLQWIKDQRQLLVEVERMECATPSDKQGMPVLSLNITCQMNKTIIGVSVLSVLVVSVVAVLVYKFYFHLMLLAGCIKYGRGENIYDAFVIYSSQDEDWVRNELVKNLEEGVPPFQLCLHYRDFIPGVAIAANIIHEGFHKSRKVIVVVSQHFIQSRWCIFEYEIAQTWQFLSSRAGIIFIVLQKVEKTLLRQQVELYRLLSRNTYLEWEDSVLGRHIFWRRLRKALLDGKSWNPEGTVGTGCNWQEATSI
T1 sequence (Q9Y6Y9 17-160 limits assumed): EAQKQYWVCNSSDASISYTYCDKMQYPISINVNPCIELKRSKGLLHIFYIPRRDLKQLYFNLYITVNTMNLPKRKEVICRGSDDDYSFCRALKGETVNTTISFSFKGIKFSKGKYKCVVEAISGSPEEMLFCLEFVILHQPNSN

With TNF-α the “TLR-4 activation, optical density (OD)” value (human TLR-4 receptor; 0.1 ng/ml) was 0.275 OD, the “TLR-4 activation, optical density (OD)” value (human TLR-4 receptor; 0.3 ng/ml) was 0.577 OD and the “TLR-4 activation, optical density (OD)” value (human TLR-4 receptor; 1 ng/ml) was 0.899 OD. The “TLR-4 activation, optical density (OD)” value (human TLR-4 receptor; 3 ng/ml) was 1.135 OD, the “TLR-4 activation, optical density (OD)” value (human TLR-4 receptor; 10 ng/ml) was 1.262 OD and the “TLR-4 activation, optical density (OD)” value (human TLR-4 receptor; 30 ng/ml) was 1.387 OD. The “NFκB reporter, optical density (OD), negative control cells” value (“NFκB reporter, optical density (OD)” below) ([1]; 0.3 ng/ml) was 0.035 OD and 0.025 OD and 0.027 OD, the “NFκB reporter, optical density (OD)” value ([1]; 3 ng/ml) was 0.033 OD and 0.027 OD and 0.024 OD and the “NFκB reporter, optical density (OD)” value ([1]; 30 ng/ml) was 3.586 OD and 3.502 OD and 3.663 OD.
